Here are results for seven molecules from article PMC9820070, “Synthesis, Photochemistry, Computational Study and Potential Application of New Styryl-Thiophene and Naphtho-Thiophene Benzylamines” (International Journal of Molecular Sciences, 2022).

pIC50: −log10 of the molar value.

Series [1] relates to TNFα production in human PBMCs. Kind of series: TNFα production in LPS stimulated PBMCs. It is filed as cell-based. Particulars: compound treatment and LPS stimulation.
A further series concerns THP-1 cell line. Kind of series: THP-1 cell viability assay (CellTiter Glo). Particulars: THP-1, 72 h incubation. Format: cell-based.
Series [2] has as its target T1, butyrylcholinesterase from equine serum (Equus caballus, UniProt P81908). The experiment in a line: biochemical.
The subject of series [3] is TNFα production in human PBMCs. Also noted: method as in PMID 35228009. As to conditions: earlier work; cited from earlier work.
The target of series [4] is T1, butyrylcholinesterase from equine serum. Particulars: earlier work; cited from earlier work.
Series [5] addresses acetylcholinesterase from electric eel (Electrophorus electricus, UniProt O42275). The experiment in a line: biochemical.
The nature of series [6]: Acid resistance: pH change of UV spectra and NMR control at pH 1. Format: physicochemical. As to conditions: 1H NMR spectrum recorded at pH 1.

T1 sequence (P81908 whole entry): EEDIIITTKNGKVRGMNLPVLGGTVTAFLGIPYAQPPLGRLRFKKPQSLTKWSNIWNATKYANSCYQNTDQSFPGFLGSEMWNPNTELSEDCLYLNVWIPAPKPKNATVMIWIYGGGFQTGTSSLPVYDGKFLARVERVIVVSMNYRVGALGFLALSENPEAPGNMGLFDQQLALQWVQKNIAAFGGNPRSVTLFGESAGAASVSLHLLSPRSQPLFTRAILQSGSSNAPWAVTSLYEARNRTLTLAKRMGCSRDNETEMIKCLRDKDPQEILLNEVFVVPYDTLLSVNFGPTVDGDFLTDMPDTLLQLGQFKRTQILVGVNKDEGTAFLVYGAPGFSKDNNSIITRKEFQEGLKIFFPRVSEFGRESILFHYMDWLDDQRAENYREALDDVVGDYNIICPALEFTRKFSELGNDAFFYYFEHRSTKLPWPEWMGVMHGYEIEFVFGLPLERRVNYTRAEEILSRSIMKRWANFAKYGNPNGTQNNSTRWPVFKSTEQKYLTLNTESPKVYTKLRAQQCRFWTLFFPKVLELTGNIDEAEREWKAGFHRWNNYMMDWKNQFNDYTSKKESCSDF
Chain of acetylcholinesterase from electric eel (O42275 24-633): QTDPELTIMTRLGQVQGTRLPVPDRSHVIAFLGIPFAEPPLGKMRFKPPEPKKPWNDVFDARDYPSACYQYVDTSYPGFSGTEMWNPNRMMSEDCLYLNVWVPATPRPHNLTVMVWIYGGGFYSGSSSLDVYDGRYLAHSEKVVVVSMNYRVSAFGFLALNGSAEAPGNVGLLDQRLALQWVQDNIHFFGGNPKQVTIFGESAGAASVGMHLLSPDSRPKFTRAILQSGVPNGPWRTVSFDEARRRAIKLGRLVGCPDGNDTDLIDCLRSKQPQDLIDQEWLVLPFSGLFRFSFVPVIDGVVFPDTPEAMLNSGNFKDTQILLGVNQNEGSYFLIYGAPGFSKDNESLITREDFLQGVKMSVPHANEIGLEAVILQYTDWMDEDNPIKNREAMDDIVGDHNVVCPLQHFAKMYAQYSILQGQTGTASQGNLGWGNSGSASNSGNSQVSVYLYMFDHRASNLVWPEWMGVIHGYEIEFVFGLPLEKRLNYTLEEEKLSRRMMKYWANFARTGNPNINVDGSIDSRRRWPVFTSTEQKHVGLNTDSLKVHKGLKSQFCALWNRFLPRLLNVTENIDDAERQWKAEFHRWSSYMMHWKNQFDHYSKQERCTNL

As for `Fc1ccc(CNc2ccc3ccc4sccc4c3c2)cc1` [Compound 9, N-(4-fluorobenzyl)naphtho [2,1-b]thiophen-8-amine], the “effect on TNFα production” value in series [1] is “did not have any effect”. Moreover, in the series on THP-1 cell line, the “effect on cell viability (antiproliferative activity)” value was “most potent”.

With `COc1ccc(CNc2ccc3ccc4sccc4c3c2)cc1` [Compound 13, N-(4-methoxybenzyl)naphtho [2,1-b]thiophen-8-amine], the “effect on TNFα production” value in series [1] is given as “did not have any effect”. Besides, the “effect on cell viability (antiproliferative activity)” value with THP-1 cell line was “most potent”.

As a reminder, the pIC50 is −log10 of the IC50, conventionally taken in molar units. Higher therefore signals a small IC50. `c1csc(CNc2ccc3ccc4sccc4c3c2)c1` [Compound 15, N-(thiophen-2-ylmethyl)naphtho [2,1-b]thiophen-8-amine] gave a pIC50 in series [2] (equine serum BChE, Ellman's method) of roughly 4.49.

With `C=CCn1nnc2ccc3sccc3c21` [allyl-thienobenzotriazole IV], the “TNFα production in PBMCs in response to the LPS stimulus” value in series [3] is on record as “strongly inhibited”. The “potency as inhibitor of eqBChE compared to the standard galantamine” value in series [4] is recorded as “twice as potent”.

As for `C(=C/c1cccs1)/c1ccc(NCc2cccs2)cc1` [cis-8, (Z)-4-(2-(thiophen-2-yl)vinyl)-N-(thiophen-2-ylmethyl)aniline], the pIC50 in series [5] (electric eel AChE, Ellman's method) was 3.88. Further, in series [6], the “acid resistance (1H NMR, cis configuration retained)” value is “strong acid resistance”. As for `Fc1ccc(CNc2ccc(/C=C/c3cccs3)cc2)cc1` [trans-2, (E)-N-(4-fluorobenzyl)-4-(2-(thiophen-2-yl)vinyl)aniline], the “effect on TNFα production” value in series [1] is recorded as “did not have any effect”. On to `C(=C\c1cccs1)/c1ccc(NCc2cccs2)cc1` [trans-8, (E)-4-(2-(thiophen-2-yl)vinyl)-N-(thiophen-2-ylmethyl)aniline], for which the “inhibition values, AChE” value in series [5] was “smaller than 50%”. In addition, in series [2] (tested at final concentrations 20–250 μM), the “inhibition values, BChE” value was “smaller than 50%”.
